# Assay results: PubChem BioAssay (NCI)
#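 1) Cells in 96-well plates. 2) Compound, 48 h, 5 concentrations. 3) Linear interpolation between surrounding doses. 4) Unreached endpoint = highest concentration. TGI marks complete inhibition of growth.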
# Legend:
# Experiment in all cases: inhibition of tumour cell growth, NCI panel, 48 h
# [1] = tested on: DLD-1 colon
# [2] = tested on: DMS 114 small cell lung
# [3] = tested on: DMS 273 small cell lung
# [4] = tested on: HOP-62 NSCLC
# [5] = tested on: K-562 leukemia
# [6] = tested on: KM20L2 colon
# [7] = tested on: LOX IMVI melanoma
# [8] = tested on: M19-MEL melanoma
# [9] = tested on: OVCAR-4 ovarian
# [10] = tested on: OVCAR-8 ovarian
# [11] = tested on: SK-MEL-5 melanoma
# [12] = tested on: UACC-62 melanoma
# [13] = tested on: DU-145 prostate
# [14] = tested on: HS 578T breast
# [15] = tested on: KM12 colon
# [16] = tested on: MALME-3M melanoma
# [17] = tested on: MDA-MB-435
# [18] = tested on: BT-549 breast
# [19] = tested on: HOP-18 NSCLC
# [20] = tested on: XF 498 CNS
Compound,TGI [1] [µM],TGI [2] [µM],TGI [3] [µM],TGI [4] [µM],TGI [5] [µM],TGI [6] [µM],TGI [7] [µM],TGI [8] [µM],TGI [9] [µM],TGI [10] [µM],TGI [11] [µM],TGI [12] [µM],TGI [13] [µM],TGI [14] [µM],TGI [15] [µM],TGI [16] [µM],TGI [17] [µM],TGI [18] [µM],TGI [19] [µM],TGI [20] [µM]
CCO[C@]12C[C@H](OC)[C@@]3(O)CC(C1[C@H]3O)C13C4C2[C@H](OC)C1[C@](COC)(CN4CC)[C@H](O)C[C@@H]3OC (some centres undefined),> 100,> 100,> 100,> 100,> 100,> 100,> 100,> 100,> 100,> 100,> 100,> 100,–,–,–,–,–,–,–,–
COc1ccc(N2C(=O)C3c4[nH]c5cccc(C)c5c4C4CCC(C(C)(C)C)CC4C3C2=O)cc1 (centres undefined),–,–,–,> 10,> 10,–,> 10,–,2.26,> 10,> 10,> 10,> 10,> 10,> 10,> 10,> 10,–,–,–
CC(C)(C)C(=O)C(C(c1ccccc1)N1CCOCC1)N1CCOCC1 (centres undefined),–,–,–,> 100,> 100,–,> 100,–,> 100,> 100,–,> 100,> 100,> 100,> 100,> 100,> 100,> 100,–,–
CC(C)[C@](O)(C(=O)OCC1CC[N+]2([O-])CC[C@@H](O)C12)[C@H](C)O (some centres undefined),> 375,> 375,> 375,> 375,> 375,> 375,> 203,> 375,> 375,> 375,> 375,> 375,–,–,> 375,> 256,–,–,> 375,> 375
OCCN(CCO)c1ccc2c(c1)Cc1ccccc1-2,–,–,–,> 100,> 100,–,> 100,–,> 100,> 100,> 100,> 100,> 100,> 100,> 100,> 100,> 100,–,–,–
CCCCCCCCCCCCCCCCOCC(COP(=O)([O-])OCC[N+](C)(C)C)OCCCCCCCCCCCCCCCC (centres undefined),> 100,> 100,> 100,> 100,> 100,> 100,> 100,> 100,> 100,> 100,> 100,> 100,–,–,> 100,> 100,–,–,> 100,> 100
CCCCN1C(=O)NC(Cc2ccccc2)C1=O (centres undefined),> 100,> 100,> 100,> 100,–,> 100,> 100,> 100,–,> 100,–,–,–,–,> 100,> 100,–,–,> 100,> 100
CC(=O)Oc1ccccc1C(=O)O,–,–,–,> 100,> 100,–,> 100,–,> 100,> 100,> 100,> 100,> 100,–,> 100,> 100,> 100,> 100,–,–
O=[n+]1c2ccccc2n([O-])c2cc(Br)ccc21,–,–,–,> 100,33.4,–,13.6,–,45.2,47.9,39.5,55.6,98.9,> 100,30.9,39.7,36.5,–,–,–
Cc1ccc(-c2csc(=Nc3c(C)n(C)n(-c4ccccc4)c3=O)n2CCO)cc1,–,–,–,> 100,> 100,–,–,–,> 100,> 100,–,> 100,–,–,> 100,–,> 100,> 100,–,–
